Key:
[1] = Stability test: light test (light box with UV); assay type: physicochemical; conditions: for Appearance / Purity (%): Light (with UV)
Protocol: (3) Light test: A batch of the test sample was taken into the flat weighing bottle, divided into ≤5 mm thick thin layer. The sample was placed in an opened light box (with UV) at the illuminance 4500±5001x, UV light ≥0.7w/m2 for 30 days. The sample was then taken on days 5, 13, and 30, and the change of the sample's color was observed. The purity of the sample was detected by HPLC, and the structure of the sample was analyzed by X-ray powder diffraction, the change of X-ray powder diffraction in light test was substantially shown in FIG. 6.

[2] = Pharmacokinetic test in Beagle dogs, oral capsules; assay type: in vivo; conditions: dog, plasma, male Beagle dogs, 5 mg/kg orally
Protocol: The amorphous form of compound having Formula (I) named 2-((5-cyclopropyl-3-(2,6-di chl orophenyl)i soxazol-4-yl)methoxy)-10H-spiro[b enzo[6,7]oxepino[3,2-b]pyridine-11,1′-cyclopropane]-7-carboxylic acid was filled into capsules, which was for oral administration.
8-12 kg Male Beagle dogs were given 5 mg/kg test sample orally, with 3 animals in each group. Blood was taken at time points of 0.25, 0.5, 1.0, 2.0, 4.0, 6.0, 8.0, 12 and 24 h. Standard curve was plotted based on concentrations of the samples in a suitable range, the concentration of the test sample in the plasma sample was measured and quantified by AB SCIEX API4000 LC-MS/MS at MRM mode. Pharmacokinetic parameters were calculated according to drug concentration -time curve using a noncompartmental model by WinNonLin 6.3 software.

[3] = Hygroscopicity test by dynamic moisture adsorption device; assay type: physicochemical; conditions: relative humidity of 80%
Protocol: The description of the hygroscopic feature and the definition of the hygroscopic weight gain (Chinese Pharmacopoeia 2015 edition, Appendix 9103 Guidelines for Drug Hygroscopicity Tests, experimental conditions: 25° C. ±1° C., 80% ±2% relative humidity) are as described in the table below.
An appropriate amount of the test sample was taken and the hygroscopicity of the test sample was tested by dynamic moisture adsorption device. […] That is, the amorphous form of the invention is not easily deliquescent under the influence of high humidity.

[4] = Stability test: high temperature test (60° C.); assay type: physicochemical
Protocol: (1) High temperature test: A batch of the test sample was taken into a flat weighing bottle, divided into ≤5 mm thick thin layer. The sample was placed at 60° C. for 30 days. The sample was then taken on days 5, 10, and 30, and the change of the sample's color was observed. The purity of the sample was detected by HPLC, and the structure of the sample was analyzed by X-ray powder diffraction, the change of X-ray powder diffraction in high temperature test was substantially shown in FIG. 4.

[5] = Stability test: high humidity test (25° C., RH 90% ±5%); assay type: physicochemical; conditions: for Appearance / Purity (%): High humidity 25° C., RH 90% ±5%
Protocol: (2) High humidity test: A batch of the test sample was taken into the flat weighing bottle, divided into <5 mm thick thin layer. The sample was placed at 25° C. and RH for 90% ±5% for 30 days. The sample was then taken on days 5, 10, and 30, and the change of the sample's color was observed. The purity of the sample was detected by HPLC, and the structure of the sample was analyzed by X-ray powder diffraction, the change of X-ray powder diffraction in high humidity test was substantially shown in FIG. 5.

Appearance ([1]; 5 Days): White
Purity (%) ([1]; 5 Days, HPLC): 99.62%
Appearance ([1]; 13 days): White
Purity (%) ([1]; 13 days, HPLC): 99.63%
Appearance ([1]; 30 days): White
Purity (%) ([1]; 30 days, HPLC): 99.57%
changes of appearance, chemical purity and crystal form ([1]; light, up to 30 days, HPLC, XRPD): no obvious changes
AUC(0-t) [2]: 765 ng·h/mL
Cmax [2]: 268 ng/mL
Tmax [2]: 2 h
hygroscopic weight gain ([3]; after equilibrium): less than 2%
hygroscopic feature ([3]; criterion for the hygroscopic weight gain): slightly hygroscopic
Appearance ([4]; 0 Day (start of stability test)): White
Purity (%) ([4]; 0 Day (start of stability test), HPLC): 99.66%
Appearance ([4]; High temperature 60° C., 5 Days): White
Purity (%) ([4]; High temperature 60° C., 5 Days, HPLC): 99.65%
Appearance ([4]; High temperature 60° C., 10 Days): White
Purity (%) ([4]; High temperature 60° C., 10 Days, HPLC): 99.48%
Appearance ([4]; High temperature 60° C., 30 Days): White
Purity (%) ([4]; High temperature 60° C., 30 Days, HPLC): 99.60%
changes of appearance, chemical purity and crystal form ([4]; high temperature, up to 30 days, HPLC, XRPD): no obvious changes
Appearance ([5]; 5 Days): White
Purity (%) ([5]; 5 Days, HPLC): 99.64%
Appearance ([5]; 10 Days): White
Purity (%) ([5]; 10 Days, HPLC): 99.61%
Appearance ([5]; 30 Days): White
Purity (%) ([5]; 30 Days, HPLC): 99.63%
changes of appearance, chemical purity and crystal form ([5]; high humidity, up to 30 days, HPLC, XRPD): no obvious changes
SMILES: O=C(O)c1ccc2c(c1)Oc1ccc(OCc3c(-c4c(Cl)cccc4Cl)noc3C3CC3)nc1C1(CC1)C2 [The amorphous form, 2-((5-cyclopropyl-3-(2,6-dichlorophenyl)isoxazol-4-yl)methoxy)-10H-spiro[benzo[6,7]oxepino[3,2-b]pyridine-11,1′-cyclopropane]-7-carboxylic acid]
